Measured values reported in patent publication US12281122B1, “PI3K inhibitors” (Cogent Biosciences, Inc., priority 2023, dated 2025).
pIC50: −log10 of the molar value.

Legend:
[1] = system: T47D (PI3Kα-H1047R) cell line; experiment: HTRF phospho-AKT(S473) cell assay in T47D cells; assay type: cell-based, human
Outline: (§1)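 pAKT(S473) in lysates read by HTRF after a 2 h, 37 °C compound exposure (12-point 1:3 series, max 0.5% DMSO). SKBR3 (wild type, top 10 μM) received 70 ng/ml PDGF-BB during the final 15 min; T47D (H1047R, top 5 μM) was unstimulated. IC50 values derived from the dose-response.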

[2] = system: SKBR3 (PI3Kα-Wild Type) cell line; experiment: HTRF phospho-AKT(S473) cell assay in SKBR3 cells; assay type: cell-based, human
Outline: as §1

[3] = Homo sapiens; T47D (PI3Kα-H1047R) cells, HTRF phospho-AKT(S473), 2 hours compound incubation
[4] = Homo sapiens, SK-BR-3; SKBR3 (PI3Kα-Wild Type) cells, HTRF phospho-AKT(S473), 2 hours compound incubation, PDGF-BB stimulated
[5] = Homo sapiens; HTRF phospho-AKT(S473), T47D (PI3Kα-H1047R) cells, 2 hours compound incubation
[6] = Homo sapiens, SK-BR-3; HTRF phospho-AKT(S473), SKBR3 (PI3Kα-Wild Type) cells, 2 hours compound incubation, PDGF-BB stimulated

SMILES | pIC50 [1, 3] | pIC50 [2, 4] | pIC50 [1, 5] | pIC50 [2, 6]
Cc1cc([C@@H](C)Nc2ccc(Cl)nc2C(=O)NS(C)(=O)=O)c2nc(N3CCC(c4nccnc4C)CC3)n(C)c(=O)c2c1 [Compound 438, (R)-6-chloro-3-((1-(3,6-dimethyl-2-(4-(3-methylpyrazin-2-yl)piperidin-1-yl)-4-oxo-3,4-dihydroquinazolin-8-yl)ethyl)amino)-N-(methylsulfonyl) picolinamide] | 6.30 to 6.60 | ≤ 5.30 | – | –
Cc1cc([C@@H](C)Nc2ccc(Cl)nc2C(=O)NS(C)(=O)=O)c2nc(N3C[C@@H]4[C@H](C3)[C@H]4c3cnccn3)n(C)c(=O)c2c1 [Compound 439, 6-chloro-3-(((R)-1-(3,6-dimethyl-4-oxo-2-((1R,5S,6R)-6-(pyrazin-2-yl)-3-azabicyclo[3.1.0]hexan-3-yl)-3,4-dihydroquinazolin-8-yl)ethyl)amino)-N-(methylsulfonyl) picolinamide] | > 6.60 | 5.30 to 6.00 | – | –
COc1nn(C)cc1[C@H]1[C@@H]2CN(c3nc4c([C@@H](C)Nc5ccc(Cl)nc5C(=O)NS(C)(=O)=O)cc(C)cc4c(=O)n3C)C[C@@H]21 [Compound 440, 6-chloro-3-(((R)-1-(2-((1R,5S,6S)-6-(3-methoxy-1-methyl-1H-pyrazol-4-yl)-3-azabicyclo[3.1.0]hexan-3-yl)-3,6-dimethyl-4-oxo-3,4-dihydroquinazolin-8-yl)ethyl)amino)-N-(methylsulfonyl) picolinamide] | – | – | > 6.60 | 5.30 to 6.00
Cc1cc([C@@H](C)Nc2ccc(Cl)nc2C(=O)NS(C)(=O)=O)c2nc(N3C[C@@H]4[C@H](C3)[C@H]4c3ccc(C)nn3)n(C)c(=O)c2c1 [Compound 441, 6-chloro-3-(((R)-1-(3,6-dimethyl-2-((1R,5S,6R)-6-(6-methylpyridazin-3-yl)-3-azabicyclo [3.1.0]hexan-3-yl)-4-oxo-3,4-dihydroquinazolin-8-yl)ethyl)amino)-N-(methylsulfonyl) picolinamide] | – | – | > 6.60 | 5.30 to 6.00
Cc1cnc(C2CCN(c3nc4c([C@@H](C)Nc5ccc(Cl)nc5C(=O)NS(C)(=O)=O)cc(Cl)cc4c(=O)n3C)CC2)cn1 [Compound 442, (R)-6-chloro-3-((1-(6-chloro-3-methyl-2-(4-(5-methylpyrazin-2-yl)piperidin-1-yl)-4-oxo-3,4-dihydroquinazolin-8-yl)ethyl)amino)-N-(methylsulfonyl) picolinamide] | – | – | > 6.60 | 5.30 to 6.00
Cc1cc([C@@H](C)Nc2ccc(Cl)nc2C(=O)NS(C)(=O)=O)c2nc(N3CCC(c4ccn(C(F)(F)F)n4)CC3)n(C)c(=O)c2c1 [Compound 445, (R)-6-chloro-3-((1-(3,6-dimethyl-4-oxo-2-(4-(1-(trifluoromethyl)-1H-pyrazol-3-yl)piperidin-1-yl)-3,4-dihydroquinazolin-8-yl)ethyl)amino)-N-(methylsulfonyl) picolinamide] | – | – | 6.30 to 6.60 | ≤ 5.30
Cc1cc([C@@H](C)Nc2ccc(Cl)nc2C(=O)NS(C)(=O)=O)c2nc(N3CCC(c4ccnn4C(F)(F)F)CC3)n(C)c(=O)c2c1 [Compound 446, (R)-6-chloro-3-((1-(3,6-dimethyl-4-oxo-2-(4-(1-(trifluoromethyl)-1H-pyrazol-5-yl)piperidin-1-yl)-3,4-dihydroquinazolin-8-yl)ethyl)amino)-N-(methylsulfonyl) picolinamide] | – | – | 6.30 to 6.60 | ≤ 5.30
Cc1cc([C@@H](C)Nc2ccc(Cl)nc2C(=O)NS(C)(=O)=O)c2nc(N3CCC(c4ccn(C5COC5)n4)CC3)n(C)c(=O)c2c1 [Compound 447, (R)-6-chloro-3-((1-(3,6-dimethyl-2-(4-(1-(oxetan-3-yl)-1H-pyrazol-3-yl)piperidin-1-yl)-4-oxo-3,4-dihydroquinazolin-8-yl)ethyl)amino)-N-(methylsulfonyl) picolinamide] | – | – | > 6.60 | 5.30 to 6.00
